From patent US20190038641A1, “COMBINATION THERAPY FOR CASTRATION-RESISTANT PROSTRATE CANCER” (The Board of Regents of the University of Texas System, priority 2016, published 2019)

What was measured:
Assay type in all cases: cell-based, human
[1] = tested on: HSD3β-1; assay: Regulation of HSD3β-1 expression (quantitative RT-PCR, Western blot) in castration-resistant prostate cancer cell lines; conditions: C4-2B and C4-2 castration-resistant prostate cancer cell lines; FIG. 1
From the text: FIG. 1. Regulation of HSD3β-1 in C4-2B castration-resistant cell lines.

[2] = tested on: CYP24A1; assay: Regulation of CYP24A1 mRNA expression in C4-2B castration-resistant cells (QRT-PCR)
From the text: FIG. 2. Regulation of CYP24A1 in C4-2B castration resistant cell lines.
CYP24A1 induction by calcitriol has been reported by many laboratories. However, complete suppression of this induction by androgen has not been reported in the literature.
(§1) Dampened vitamin D/VDR-induced CYP24A1 mRNA expression in the presence of androgen is beneficial, as it would prevent ligand degradation, thereby enhancing VDR signaling.

[3] = tested on: SULT2B1; assay: QRT-PCR assay of SULT2B1 mRNAs in C4-2B cells; conditions: EB1089 10 nM, R1881 1 nM, FIG. 3B
From the text: as §1

| Structure (SMILES) | expression of HSD3β-1 (messenger RNA and protein levels) [1] | induction of CYP24A1 ([2]; C4-2B castration-resistant cells, calcitriol with or without androgen, FIG. 2) | CYP24A1 mRNA expression (induction) ([2]; C4-2B cells, EB1089 10 nM, R1881 1 nM, FIG. 3A) [fold] | induction of SULT2B1 mRNAs [3] |
| --- | --- | --- | --- | --- |
| C=C1/C(=C\C=C2/CCC[C@]3(C)[C@@H]([C@H](C)CCCC(C)(C)O)CC[C@@H]23)C[C@@H](O)C[C@@H]1O [calcitriol, 1,25-dihydroxycholecalciferol] | strongly induced | three orders of magnitude and more | – | – |
| C=C1/C(=C\C=C2/CCC[C@]3(C)[C@@H]([C@H](C)/C=C/C=C/C(O)(CC)CC)CC[C@@H]23)C[C@@H](O)C[C@@H]1O [EB1089] | – | – | ~2000 | induction |
